These results are taken from PMC11233548 (Communications Biology, 2024).

The subject of this assay is B-RBD-D211A, D213A. As to the kind of experiment: BRET-titration Gal1/B-RBD-D211A, D213A. Format: cell-based, human. The note with it: versus wild-type, n = 3. In general terms: BRET reads energy transfer from a luciferase to a nearby fluorophore.

With “Gal1: galectin-1, H-Ras nanocluster scaffold”, the “BRETtop, Gal1/B-RBD-D211A, D213A” value is “significantly reduced”.
